From patent US20180271823A1, “SULFUR-BASED BROAD SPECTRUM ANTIVIRALS” (priority 2017, published 2018)

Legend:
[1] = test system: some paramyxoviruses and pneumoviruses; conditions: cited from earlier work
[2] = test system: pseudotyped NiV/VSV virus (pNiV); type: cell-based, Nipah virus
[3] = test system: HSV-1 KOS; type: cell-based
[4] = test system: Human respiratory syncytial virus (RSV A2 strain); experiment: Plaque assay for RSV infections; type: cell-based
[5] = test system: vesicular stomatitis virus (VSV); type: cell-based
[6] = test system: Influenza virus; type: cell-based
[7] = test system: bovine rotavirus strain NCDV; experiment: Rotavirus infection assay in MA104 cells; type: cell-based
[8] = test system: 293T cells transfected with NiV F and G; type: cell-based
[9] = test system: NiV F and G glycoproteins; type: cell-based
[10] = test system: pNiV viral membrane; design: species or system NiV
[11] = test system: pNiV viral membrane; design: species or system NiV; remark: listed apart in the source
[12] = biological target: NiV G glycoprotein (Nipah virus, UniProt Q9IH62)
NiV G glycoprotein, sequence (Q9IH62 whole entry, looked up): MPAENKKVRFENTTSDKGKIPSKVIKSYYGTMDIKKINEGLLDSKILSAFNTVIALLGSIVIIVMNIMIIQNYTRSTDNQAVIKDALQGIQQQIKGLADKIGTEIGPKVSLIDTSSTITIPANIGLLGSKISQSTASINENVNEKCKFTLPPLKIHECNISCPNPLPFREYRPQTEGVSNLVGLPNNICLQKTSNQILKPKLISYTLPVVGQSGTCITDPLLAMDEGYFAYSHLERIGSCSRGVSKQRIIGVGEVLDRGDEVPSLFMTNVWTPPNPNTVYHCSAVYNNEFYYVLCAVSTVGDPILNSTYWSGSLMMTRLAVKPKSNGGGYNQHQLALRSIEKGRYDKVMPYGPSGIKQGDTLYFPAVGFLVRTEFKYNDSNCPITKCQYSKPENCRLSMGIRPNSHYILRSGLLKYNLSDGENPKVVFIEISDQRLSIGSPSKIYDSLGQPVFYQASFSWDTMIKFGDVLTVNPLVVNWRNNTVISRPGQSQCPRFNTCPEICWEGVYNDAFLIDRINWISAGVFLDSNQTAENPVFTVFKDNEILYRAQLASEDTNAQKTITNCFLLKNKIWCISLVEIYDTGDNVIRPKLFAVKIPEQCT

[13] = biological target: NiV F protein (Nipah virus, UniProt Q9IH63)
NiV F protein, sequence (Q9IH63 110-546 limits assumed): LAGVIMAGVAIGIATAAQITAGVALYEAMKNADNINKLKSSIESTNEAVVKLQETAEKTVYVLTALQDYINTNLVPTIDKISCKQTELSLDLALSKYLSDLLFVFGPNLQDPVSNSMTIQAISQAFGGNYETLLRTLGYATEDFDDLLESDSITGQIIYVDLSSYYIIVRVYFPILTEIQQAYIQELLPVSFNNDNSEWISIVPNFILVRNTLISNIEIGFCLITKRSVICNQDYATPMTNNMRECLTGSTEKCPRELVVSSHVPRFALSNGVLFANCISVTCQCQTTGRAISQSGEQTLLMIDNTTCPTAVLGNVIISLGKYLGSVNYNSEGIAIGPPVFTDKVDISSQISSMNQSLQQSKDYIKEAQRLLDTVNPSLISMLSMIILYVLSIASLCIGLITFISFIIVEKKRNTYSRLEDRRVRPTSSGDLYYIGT
NiV F protein, sequence (Q9IH63 27-109 limits assumed): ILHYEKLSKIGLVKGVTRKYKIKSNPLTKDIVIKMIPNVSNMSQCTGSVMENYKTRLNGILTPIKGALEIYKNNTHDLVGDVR

[14] = biological target: NiV F and NiV G on pseudotyped NiV virions (Nipah virus, UniProt Q9IH62+Q9IH63)
[15] = test system: Vero cells; experiment: Cytotoxicity / cell viability assay (CCK-8)

## C1COCCN1.COc1ccc(P(=S)(S)N2CCOCC2)cc1 (centres unmarked) [GYY4137]
[1]
  EC50: 10 mM

## COC(=O)C(CSSC(=O)c1ccccc1)NC(=O)c1ccccc1 (centres unmarked) [XM-01]
[2]
  capability of treated virions to infect Vero cells: highly inhibited
  inhibition when added after infection (time of addition): completely incapable of inhibiting the virus
  inhibitory activity in the absence of light: did not need light to inhibit pNiV infections
  inhibitory properties: high inhibitory properties
  potency as antiviral inhibitor compared with NaHS or GYY4137: much more potent
  viral infection of pretreated cells: did not significantly reduce viral infection
[2]; 10 μM
  inhibition of infectivity: high inhibition of infectivity
[2]; read-out: EC50 (inhibitory concentration, pNiV system)
  EC50: ~1000 nM
[3]
  HSV-1 plaque formation: inhibit HSV-1 plaque formation in a concentration-dependent fashion
[4]
  RSV infection: inhibited
[5]
  VSV infection: inhibited
[6]
  Influenza virus infection: inhibited
[7]
  non-enveloped rotavirus infection: no significant inhibition
[8]
  cell to cell fusion: inhibit cell to cell fusion
[9]
  protein G or F expression on cell surfaces: neither XM-01 at 10 μM nor LJ001 at 1 μM significantly affect
[10]
  RNA spill from virions (TEM): RNA spilled more frequently
  viral membrane appearance (TEM): compromised viral membrane
[11]
  ratio of excimer to monomer (membrane fluidity): considerably lower ratio of excimers to monomers
[12]
  ephrinB2 receptor binding ability of NiV G: did not interfere
[13]
  NiV-F protein triggering: not decreased
[14]
  glycoprotein conformations (antibody binding to NiV F or NiV G): no significant changes in antibody binding
[15]; 1, 3, and 10 μM
  cytotoxicity: low cytotoxicity
[15]; EC50 pNiV vs CC50
  difference between inhibitory and cytotoxic concentrations: ~3 log
[15]; Vero cells, 1 μM-1 mM, calculated using Graphpad Prism
  CC50: ~1 mM

## CC(=O)NC(CSSC(=O)c1ccccc1)C(=O)NCc1ccccc1 (centres unmarked) [XM-02]
[2]
  inhibitory properties: high inhibitory properties

## COC(=O)C(CSSC(C)=O)NC(=O)c1ccccc1 (centres unmarked) [XM-03]
[2]
  inhibitory properties: high inhibitory properties

## COC(=O)C(CSC(=O)c1ccccc1)NC(=O)c1ccccc1 (centres unmarked) [XM-10]
[2]
  inhibitory properties: high inhibitory properties

## COC(=O)C(CSC(C)=O)NC(=O)c1ccccc1 (centres unmarked) [XM-11]
[2]
  inhibitory properties: high inhibitory properties
